Test results reported in patent US8222235B2, “2-methylene-19-nor-(20R)-1α-hydroxy-bishomopregnacalciferol” (Wisconsin Alumni Research Foundation, priority 2004, dated 2012).

Key:
[1] = system: parathyroid hormone (PTH); assay: PTH suppression in adult rats; type: in vivo, Sprague-Dawley rats; settings: ip, 7 consecutive days, FIG. 7
Procedure: FIG. 7 is a bar graph comparing the percent parathyroid hormone (PTH) suppression in adult rats of (20R)-2 MbisP with 1,25(OH)2D3.
(§1) Adult, female Sprague-Dawley rats were obtained from Harlan (Madison, Wis.).
(§2) Upon receipt, the animals were identified by individual tail marks. Animals were housed in suspended, stainless steel, wire-bottom cages. Each cage contained one animal. The animal rooms were maintained at a temperature of 68 to 72° F. and a relative humidity of 25 to 75%. The holding rooms were set to provide 12 hours of light per day. Water and a purified rodent diet (Suda et al., Purified Rodent Diet-Diet 11) containing […] 0.3% phosphorus and fat soluble vitamins A, D, E and K were provided ad libitum.
(§3) Animals were randomly assigned to treatment groups (5 animals/group). All doses were administered intraperitoneally in 100 microliters of propylene glycol. Four to seven consecutive doses were given approximately 24 hours apart. Dosing was initiated after the animals had been allowed to acclimate for at least one week. […]
Twenty-four hours after the final dose, blood was collected from the tail artery and the concentration of bioactive serum PTH was measured using the rat BioActive Intact PTH ELISA Kit from Immutopics, Inc. (San Clemente, Calif.).

[2] = system: Human promyelocytic leukemia (HL60) cells; assay: HL-60 differentiation (nitro blue tetrazolium reduction); type: cell-based; settings: HL-60 cells in culture; FIG. 2
Procedure: FIG. 2 is a graph comparing the percent HL-60 cell differentiation as a function of the concentration of (20R)-2 MbisP with that of 1,25(OH)2D3.
The study drugs were dissolved in ethanol and the concentrations determined using UV spectrophotometry. Serial dilutions were prepared so that a range of drug concentrations could be tested without changing the final concentration of ethanol (≦0.2%) present in the cell cultures.
Human promyelocytic leukemia (HL60) cells were grown in RPMI-1640 medium containing 10% fetal bovine serum. The cells were incubated at 37° C. in the presence of 5% CO2.
HL60 cells were plated at 1.2×10^5 cells/ml. Eighteen hours after plating, cells in duplicate were treated with drug. Four days later, the cells were harvested and a nitro blue tetrazolium reduction assay was performed (Collins et al., 1979; J. Exp. Med. 149:969-974). The percentage of differentiated cells was determined by counting a total of 200 cells and recording the number that contained intracellular black-blue formazan deposits. Verification of differentiation to monocytic cells was determined by measuring phagocytic activity (data not shown).

[3] = molecular target: T1, full-length recombinant rat vitamin D receptor (Rattus norvegicus, UniProt P13053); assay: Vitamin D receptor competitive binding with [3H]-1,25-(OH)2-D3; settings: competition with [3H]-1,25-(OH)2-D3; FIG. 1
T1 construct: Full-length recombinant rat receptor was expressed in E. coli BL21(DE3) Codon Plus RIL cells; histidine tag (C); made in house; host or cells: E. coli BL21(DE3) Codon Plus RIL
T1 sequence (P13053 1-423): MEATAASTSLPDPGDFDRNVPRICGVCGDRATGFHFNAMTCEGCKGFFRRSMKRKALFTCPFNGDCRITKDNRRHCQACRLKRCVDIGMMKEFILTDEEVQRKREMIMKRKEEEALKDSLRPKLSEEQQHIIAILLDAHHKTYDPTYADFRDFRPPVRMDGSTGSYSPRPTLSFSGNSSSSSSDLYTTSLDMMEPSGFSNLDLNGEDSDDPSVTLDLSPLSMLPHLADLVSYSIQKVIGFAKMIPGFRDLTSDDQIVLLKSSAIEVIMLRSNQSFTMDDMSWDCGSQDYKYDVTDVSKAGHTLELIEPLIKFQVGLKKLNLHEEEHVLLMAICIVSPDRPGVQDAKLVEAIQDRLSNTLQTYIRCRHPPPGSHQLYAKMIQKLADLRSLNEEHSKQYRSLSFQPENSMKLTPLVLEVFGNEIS
Source text: FIG. 1 is a graph comparing the relative activity of (20R)-2 MbisP and 1,25(OH)2D3 to compete for binding with [^3H]-1,25-(OH)2-D3 to the full-length recombinant rat vitamin D receptor.
Full-length recombinant rat receptor was expressed in E. coli BL21(DE3) Codon Plus RIL cells and purified to homogeneity using two different column chromatography systems. The first system was a nickel affinity resin that utilizes the C-terminal histidine tag on this protein. The protein that was eluted from this resin was further purified using ion exchange chromatography (S-Sepharose Fast Flow). Aliquots of the purified protein were quick frozen in liquid nitrogen and stored at −80° C. until use. For use in binding assays, the protein was diluted in TEDK50 (50 mM Tris, 1.5 mM EDTA, pH 7.4, 5 mM DTT, 150 mM KCl) with 0.1% Chaps detergent. […]
Unlabeled ligands were dissolved in ethanol and the concentrations determined using UV spectrophotometry (1,25(OH)2D3: molar extinction coefficient=18,200 and λmax=265 nm; Analogs: molar extinction coefficient=42,000 and λmax=252 nm). […]
Radiolabeled and unlabeled ligands were added to 100 mcl of the diluted protein at a final ethanol concentration of ≦10%, mixed and incubated overnight on ice to reach binding equilibrium. […] Total binding was determined from the tubes containing only radiolabeled ligand.

[4] = Bone calcium mobilization (serum calcium on low calcium diet); type: in vivo, Sprague-Dawley rats; settings: rats, ip, four consecutive doses, even very high concentrations; FIG. 4
Source text: FIG. 4 is a bar graph comparing the bone calcium mobilization activity of (20R)-2 MbisP with that of 1,25(OH)2D3.
(§4) Male, weanling Sprague-Dawley rats were placed on Diet 11 (0.47% Ca) diet +AEK for one week followed by Diet 11 (0.02% Ca) +AEK for 3 weeks. The rats were then switched to a diet containing 0.47% Ca for one week followed by two weeks on a diet containing 0.02% Ca. Dose administration began during the last week on 0.02% calcium diet. Four consecutive ip doses were given approximately 24 hours apart. Twenty-four hours after the last dose, blood was collected from the severed neck and the concentration of serum calcium determined as a measure of bone calcium mobilization. The first 10 cm of the intestine was also collected for intestinal calcium transport analysis using the everted gut sac method.

[5] = system: 24-hydroxylase (24Ohase) gene promoter; assay: In vitro transcription assay (luciferase reporter in ROS 17/2.8 cells); type: cell-based; settings: FIG. 3
Procedure: FIG. 3 is a graph comparing the in vitro transcription activity of (20R)-2MbisP with that of 1,25(OH)2D3.
Transcription activity was measured in ROS 17/2.8 (bone) cells that were stably transfected with a 24-hydroxylase (24Ohase) gene promoter upstream of a luciferase reporter gene (Arbour et al., 1998). Cells were given a range of doses. Sixteen hours after dosing the cells were harvested and luciferase activities were measured using a luminometer. RLU=relative luciferase units.

[6] = Intestinal calcium transport (everted gut sac method); type: in vivo, Sprague-Dawley rats; settings: rats, ip, four consecutive doses, even very high concentrations; FIG. 5
Source text: FIG. 5 is a bar graph comparing the intestinal calcium transport activity of (20R)-2 MbisP with that of 1,25(OH)2D3.
as §4

[7] = Hypercalcemia: serum calcium in adult rats; type: in vivo, Sprague-Dawley rats; settings: ip, doses as high as 45 nmol/day, FIG. 6
Procedure: FIG. 6 is a bar graph comparing the serum calcium levels in adult rats after administration of (20R)-2 MbisP and 1,25(OH)2D3.
as §1, §2, §3
Twenty-four hours after the final dose, approximately 1 ml of blood was collected from the tail artery of each experimental animal. […] The level of calcium was determined by diluting the serum into 0.1% lanthum chloride and measuring the absorbance on an atomic absorption spectrophotometer (Perkin Elmer Model 3110, Shelton, Conn.).

[8] = as set forth in the '352, '861 and '622 patents; cited from earlier work
vitamin D receptors = molecular target: T2, vitamin D receptors (Homo sapiens, UniProt P11473); settings: as set forth in the '352, '861 and '622 patents; cited from earlier work
T2 sequence (P11473 1-427): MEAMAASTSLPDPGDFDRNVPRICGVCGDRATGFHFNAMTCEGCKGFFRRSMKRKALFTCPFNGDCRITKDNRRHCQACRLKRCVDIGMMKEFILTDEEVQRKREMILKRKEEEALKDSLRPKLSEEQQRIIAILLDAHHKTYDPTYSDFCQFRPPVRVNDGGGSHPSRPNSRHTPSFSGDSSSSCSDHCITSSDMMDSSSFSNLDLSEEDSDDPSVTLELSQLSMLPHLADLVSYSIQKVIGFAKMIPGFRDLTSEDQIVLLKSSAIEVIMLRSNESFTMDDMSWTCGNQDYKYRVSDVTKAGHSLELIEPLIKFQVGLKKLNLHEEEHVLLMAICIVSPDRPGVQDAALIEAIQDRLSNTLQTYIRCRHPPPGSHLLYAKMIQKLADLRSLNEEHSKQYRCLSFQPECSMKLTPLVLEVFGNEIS

[9] = as set forth in the '352, '861 and '622 patents; cited from earlier work; remark: listed apart in the source

Row | Molecule | suppression of parathyroid hormone (PTH) in the plasma [1] | times less active than 1,25-(OH)2D3 in causing the differentiation of HL-60 cells [2] | binding to the recombinant vitamin D receptor relative to 1,25-(OH)2D3 [3] | bone calcium mobilization [4] | times less active than 1,25-(OH)2D3 in turning on transcription of a reporter gene coupled to the CYP-24 promoter [5] | intestinal calcium transport [6] | hypercalcemia (serum calcium) [7] | cell differentiation activity [8] | binding activity to vitamin D receptors (vitamin D receptors) | calcemic activity as compared to 1α,25-dihydroxyvitamin D3 [9]
1 | C=C1[C@H](O)CC(=C/C=C2\CCC[C@]3(C)C([C@H](C)CC)CC[C@@H]23)C[C@H]1O (stereo in doubt) [2-Methylene-19-nor-(20R)-1α-hydroxy-bishomopregnacalciferol] | considerable activity | about 5 times | approximately equally effective as 1,25-(OH)2D3 | does not support | about 5 times | does not support | failed to cause hypercalcemia | – | – | –
2 | 1α-hydroxy-2-methylene-19-nor-bishomopregnacalciferol | – | – | – | – | – | – | – | relatively high | relatively high | little if any
3 | 1α-hydroxy-2-methylene-19-nor-(20S)-homopregnacalciferol | – | – | – | – | – | – | – | relatively high | relatively high | little if any
4 | C=C1[C@H](O)CC(=C/C=C2\CCC[C@]3(C)[C@@H](CC)CC[C@@H]23)C[C@H]1O [1α-Hydroxy-2-methylene-19-nor-pregnacalciferol] | – | – | – | – | – | – | – | relatively high | relatively high | little if any
